# Laboratory results as given in patent US20130209581A1, “IODINATED ACTIVATED CHARCOAL FOR TREATING SYMPTOMS OF DEPRESSION” (priority 2010, published 2013).
# Tests used:
# [1] = tested on: animals suffering from the effects of iodine toxicity; conditions: animals (chicks) with iodine toxicity; cited from earlier work
# healthy volunteers = conditions: humans, cited from earlier work
# [2] = tested on: symptoms caused by depression; experiment: Self-administration of iodinated activated charcoal and its separate components by one patient with long-standing depression symptoms, with daily symptom recording and a Quality of life questionnaire; format: in vivo, human; conditions: 90 mg daily in a capsule, after 2 weeks
# Description: A person, has for some 20 years suffered from many symptoms, including chronic and severe mental fatigue in spite of 12 h sleep per night, psychological burnout, anxiety, lack of concentration, depressive mood, withdrawal from social situations, irritable bowel symptoms with constipation and/or diarrhea, anxiety, heart palpitations, pressure in the chest, reduced stamina and condition and a reduced sex drive. When asked to evaluate their subjective health status using a Quality of life questionnaire with a 1-10 scale where 1 is the worst possible and 10 is absolutely the best, they regularly marked 1 or 2. Their symptoms were interpreted as caused by depression, and they were treated with 5 different types of anti-depressants for a total of 17 years.
# Some time ago, they tested the mercury binding substance iodinated activated charcoal (IAC, custom made at PharmaLundensis according to Example 1). They took 1 g per day of IAC for two weeks, and recorded the symptoms they experienced daily, as well as filling in a Quality of life questionnaire. […] They felt better than they had felt for many years.
# After these two weeks, they wanted to clarify if the massive improvement in their health was caused by the IAC. […]
SMILES,effect on symptoms of iodine toxicity [1],no-effect level (healthy volunteers; healthy volunteers),tolerability (healthy volunteers),Quality of life score [2],improvement of symptoms [2]
"[Br-].[Na+] [Sodium bromide, sodium bromide]",helps to reverse the symptoms,4 mg/kg body weight,well tolerated,,
II [elemental iodine],,,,as bad as when they started taking the iodine capsules,no improvements
